Laboratory results taken from patent US9895381B2, “Vitamin D receptor agonists to treat diseases involving CXCL12 activity” (Salk Institute for Biological Studies, priority 2013, dated 2018).

Tests used:
[1] = test system: hPSC cell line; assay: Chromatin immunoprecipitation for VDR and SMAD3; format: cell-based, human; conditions: 100 nM Cal 16 h pretreatment, 1 ng/ml TGFβ 4 h
Experimental: The hPSC cell line was utilized for chromatin immunoprecipitation, which was described previously (Barish et al., 2010). Briefly, cells were fixed in 1% formaldehyde, and nuclei were isolated and lysed in buffer containing 1% SDS, 10 mM EDTA, 50 mM Tris-HCl pH 8.0, and protease inhibitors, and sheared with a Diagenode Bioruptor to chromatin fragment sizes of 200-1000 base pairs. Chromatin was immunoprecipitated with antibodies to VDR (C-20, Santa Cruz Biotechnology), SMAD3 (Abcam), or rabbit IgG (Santa Cruz Biotechnology).

[2] = test system: primary human CAPSCs; assay: ACTA2 expression by qRT-PCR; format: cell-based; conditions: 100 nM Cal, 48 h; samples responding / samples tested
Experimental: Total RNA was purified following Trizol extraction according to the manufacturer's instructions. cDNA synthesis was carried out using iScript reagent (Bio-Rad), and qRT-PCR performed using SsoAdvanced SYBR Green reagent on the CFX384 detection system (Bio-Rad). Relative expression values were determined using the standard curve method. Primer sequences can be found in Table 2.

[3] = test system: KPC mice with pancreatic ductal adenocarcinoma; assay: KPC mouse PDA study; format: in vivo; conditions: Cal alone
Experimental: KPC mice with pancreatic ductal adenocarcinoma were used based on tumor size, as described previously (Olive et al., 2009). In this study, enrollment was restricted to mice with tumors of a mean diameter between 6 and 9 mm, as determined by high resolution ultrasound imaging. Suitable mice were assigned to a treatment group: gemcitabine; calcipotriol; or gemcitabine and calcipotriol combination. Gemcitabine was administered as a saline solution at 100 mg/kg by intraperitoneal injection, once every three days; when appropriate, a final dose was given two hours prior to euthanasia. Calcipotriol was administered as a saline solution daily at 60 μg/kg by intraperitoneal injection. […]
LC-MS/MS was performed as described by Bapiro et al. (Bapiro et al., 2011). […] Analytes were separated using a gradient of acetonitrile in 10 mM ammonium acetate, pH 10 and detected using a Thermo LTQ-XL mass spectrometer (Thermo Fisher Scientific). Drugs recoveries were normalized using the internal standards and quantified using calibration standards generated from untreated tissue homogenates as described (Bapiro et al., 2011).
Tumors harvested from treated KPC mice were immediately fixed in buffered formalin. […] CD31-positive area was quantified in each section using Nuance software. […] Total tumor cells were quantified per field, as well as total and percent CC3-positive tumor cells per field. […]

[4] = test system: MiaPaCa-2 cells; assay: CAPSC conditioned media experiments; format: cell-based, human; conditions: CM from Cal-treated CAPSCs (100 nM, 48 h), 48 h on MiaPaCa-2
Experimental: Primary […] were grown to 100% confluency. Fresh media was added to the cultures, and at this time, […] were treated with 100 nM calcipotriol. After 48 h, conditioned media was harvested, sterile-filtered through 0.45 μm pores, and added to pancreatic cancer cells (PCCs) at 50-60% confluency. PCCs were treated directly with 100 nM calcipotriol at the onset of conditioned media incubation. After 48 h, PCCs were harvested and RNA and protein isolated for analysis.

SMILES: C=C1/C(=C\C=C2/CCC[C@]3(C)[C@@H]([C@H](C)/C=C/[C@@H](O)C4CC4)CC[C@@H]23)C[C@@H](O)C[C@@H]1O [Cal, 1α,24-(OH)2-24-cyclopropyl-D3]
- SMAD3 binding in promoter regions of fibrogenic genes (HAS2, COL1A1) [1]: decreasing SMAD3 binding
- VDR binding in promoter regions of fibrogenic genes (HAS2, COL1A1) [1]: increased VDR binding
- decreased expression of αSMA (ACTA2), patient samples [2]: 24/27
- efficacy as a single agent [3]: no measurable beneficial effects
- gene expression changes induced by CAPSC conditioned media [4]: largely abrogated
